Experimental data as given in ChEMBL document CHEMBL4152289, “Novel 8-nitroquinolin-2(1H)-ones as NTR-bioactivated antikinetoplastid molecules: Synthesis, electrochemical and SAR study” (Eur J Med Chem, 2018).

Experiments:
[1] = Electrochemical behavior of the compound assessed as redox potential corrected toward normal hydrogen electrode at 10^-3 mol/L by cyclic voltammetry; details: 1000 µM
[2] = tested on: Leishmania infantum; assay: microbe, parasite or virus in culture; type: functional, organism-based; details: MHOM/MA/67/ITMAP-263, 48 h
[3] = tested on: Trypanosoma brucei brucei; assay: Antitrypanosomal activity against trypomastigote stage of Trypanosoma brucei brucei AnTat 1.9 assessed as decrease in parasite viability after 69 hrs by Alamar Blue assay; type: functional, organism-based; details: AnTat 1.9, 69 h
[4] = tested on: HepG2; assay: Cytotoxicity against human HepG2 cells assessed as decrease in cell viability after 72 hrs by MTT assay; details: hepg2, 72 h
[5] = molecular target: T1, serum albumin (Homo sapiens, UniProt P02768); assay: Binding affinity to human serum albumin after 4 hrs by LC-MS method; type: ADME; details: read-out: PB (converted)
T1 sequence (P02768 whole entry): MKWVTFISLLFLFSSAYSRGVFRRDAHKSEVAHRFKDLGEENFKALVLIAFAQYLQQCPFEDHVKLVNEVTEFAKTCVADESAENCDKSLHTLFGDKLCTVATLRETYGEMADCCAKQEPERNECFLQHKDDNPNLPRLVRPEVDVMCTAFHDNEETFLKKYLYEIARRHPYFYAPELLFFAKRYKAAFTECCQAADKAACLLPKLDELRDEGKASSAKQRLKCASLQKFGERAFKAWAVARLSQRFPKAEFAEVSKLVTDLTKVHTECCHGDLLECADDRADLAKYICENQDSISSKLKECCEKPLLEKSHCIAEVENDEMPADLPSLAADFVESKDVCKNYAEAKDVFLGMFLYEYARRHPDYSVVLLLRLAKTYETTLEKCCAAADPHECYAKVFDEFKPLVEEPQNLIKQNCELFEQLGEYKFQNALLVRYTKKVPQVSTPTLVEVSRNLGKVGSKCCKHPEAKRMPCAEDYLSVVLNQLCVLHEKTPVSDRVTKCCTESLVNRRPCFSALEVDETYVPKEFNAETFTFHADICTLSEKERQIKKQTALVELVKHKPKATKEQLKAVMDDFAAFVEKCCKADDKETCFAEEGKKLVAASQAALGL

[6] = molecular target: Albumin (Homo sapiens, UniProt P02768); assay: (§1) Binding affinity to human serum albumin assessed as fraction unbound after 4 hrs by LC-MS method; type: ADME; details: isolated protein, 4 h
Chain of Albumin (P02768 whole entry): as above

[7] = molecular target: T1, serum albumin; assay: as §1; type: ADME; details: human serum albumin

| SMILES | Activity [1] | IC50 [2] | IC50 [3] | fraction unbound at 4 h [5] | logFu [6] | fraction unbound at 4 h [7] | CC50 [4] |
| --- | --- | --- | --- | --- | --- | --- | --- |
| Cc1cc([N+](=O)[O-])c2[nH]c(=O)ccc2c1 | -0.56 V | 23 µM | 2.1 µM |  |  |  | > 100 µM |
| COc1ccc([N+](=O)[O-])c2[nH]c(=O)ccc12 | -0.65 V | > 100 µM | > 50 µM |  |  |  | > 100 µM |
| O=[N+]([O-])c1ccccc1 [NITROBENZENE] | -0.85 V | > 100 µM | > 50 µM |  |  |  | > 100 µM |
| O=c1[nH]c2c([N+](=O)[O-])cccc2cc1Cl | -0.47 V | 16 µM | 1.2 µM |  |  |  | 85 µM |
| Cc1ccc([N+](=O)[O-])c2[nH]c(=O)ccc12 | -0.58 V | 25.2 µM | 29.1 µM |  |  |  | > 100 µM |
| NCCOCCOCCNCc1cc(=O)[nH]c2c([N+](=O)[O-])cccc12 |  | > 100 µM | 7.6 µM |  |  |  | > 100 µM |
| O=c1cc(CO)c2cccc([N+](=O)[O-])c2[nH]1 |  | 23.4 µM | 38.3 µM |  |  |  | > 100 µM |
| O=[N+]([O-])c1ccc2nc(O)ccc2c1 | -0.82 V | > 100 µM | 2.3 µM |  |  |  | > 100 µM |

Further lines, with some results ahead:

| Activity [1] | IC50 [2] | IC50 [3] | fraction unbound at 4 h [5] | logFu [6] | fraction unbound at 4 h [7] | SMILES | CC50 [4] |
| --- | --- | --- | --- | --- | --- | --- | --- |
| -0.68 V | > 100 µM | > 50 µM |  |  |  | CC(=O)Nc1ccccc1[N+](=O)[O-] | > 100 µM |
| -1.1 V | > 100 µM | > 50 µM |  |  |  | Nc1ccc2cccnc2c1[N+](=O)[O-] | > 100 µM |
| -0.75 V | > 100 µM | > 50 µM |  |  |  | COc1ccc2ccc(=O)[nH]c2c1[N+](=O)[O-] | > 100 µM |
| -0.86 V | > 100 µM | 10.8 µM |  |  |  | CC(=O)Nc1ccc2cccnc2c1[N+](=O)[O-] | > 100 µM |
|  |  |  | 0.276 | -0.56 | 0.276 | NC(=O)N1c2ccccc2C=Cc2ccccc21 [CARBAMAZEPINE] |  |
| -0.53 V | 10.2 µM | 20.9 µM |  |  |  | Cc1cc(=O)[nH]c2c([N+](=O)[O-])cccc12 | 110 µM |
| -0.51 V | 20.3 µM | 5.5 µM |  |  |  | O=c1cc(Br)c2cccc([N+](=O)[O-])c2[nH]1 | 60 µM |
